Experimental data reported in ChEMBL document CHEMBL4308853, “Design, Synthesis, and Pharmacological Evaluation of Novel β2/3 Subunit-Selective γ-Aminobutyric Acid Type A (GABAA) Receptor Modulators” (J Med Chem, 2018).
Activity calls are given as the source filed them.

Key:
[1] = target: T1, GABA-A receptor; alpha-1/beta-3/gamma-2 (Homo sapiens, UniProt P14867+P18507+P28472); experiment: Positive allosteric modulation of GABA-A alpha1beta3gamma2S receptor (unknown origin) expressed in Xenopus laevis oocytes assessed as increase in GABA-induced chloride current after 15 mins at -70 mV holding potential by two-microelectrode voltage clamp method; assay type: cell-based
T1 sequence (P14867 whole entry): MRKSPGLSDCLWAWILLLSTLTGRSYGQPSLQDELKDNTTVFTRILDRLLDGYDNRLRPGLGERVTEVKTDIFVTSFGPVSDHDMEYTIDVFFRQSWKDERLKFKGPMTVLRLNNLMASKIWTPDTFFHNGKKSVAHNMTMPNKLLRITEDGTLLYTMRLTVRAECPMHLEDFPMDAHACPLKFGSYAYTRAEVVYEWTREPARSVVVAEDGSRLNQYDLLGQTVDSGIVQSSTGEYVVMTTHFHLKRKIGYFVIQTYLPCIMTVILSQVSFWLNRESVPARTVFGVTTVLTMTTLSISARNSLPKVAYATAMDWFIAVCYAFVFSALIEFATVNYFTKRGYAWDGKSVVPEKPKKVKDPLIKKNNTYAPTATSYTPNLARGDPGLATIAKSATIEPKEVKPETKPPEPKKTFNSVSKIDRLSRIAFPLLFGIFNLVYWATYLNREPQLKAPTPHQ
T1 sequence (P18507 whole entry): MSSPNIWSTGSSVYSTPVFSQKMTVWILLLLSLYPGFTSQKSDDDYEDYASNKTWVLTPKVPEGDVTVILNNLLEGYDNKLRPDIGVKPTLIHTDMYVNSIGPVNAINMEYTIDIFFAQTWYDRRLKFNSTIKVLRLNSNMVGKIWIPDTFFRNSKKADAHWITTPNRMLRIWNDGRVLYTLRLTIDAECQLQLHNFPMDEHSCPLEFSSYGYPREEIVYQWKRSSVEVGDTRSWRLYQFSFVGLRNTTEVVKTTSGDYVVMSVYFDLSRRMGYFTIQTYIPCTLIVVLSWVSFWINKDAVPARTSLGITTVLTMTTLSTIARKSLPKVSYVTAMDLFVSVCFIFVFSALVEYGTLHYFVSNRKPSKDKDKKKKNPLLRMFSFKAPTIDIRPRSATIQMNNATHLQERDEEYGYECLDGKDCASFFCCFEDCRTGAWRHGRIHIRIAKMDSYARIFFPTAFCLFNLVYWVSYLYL
T1 sequence (P28472 whole entry): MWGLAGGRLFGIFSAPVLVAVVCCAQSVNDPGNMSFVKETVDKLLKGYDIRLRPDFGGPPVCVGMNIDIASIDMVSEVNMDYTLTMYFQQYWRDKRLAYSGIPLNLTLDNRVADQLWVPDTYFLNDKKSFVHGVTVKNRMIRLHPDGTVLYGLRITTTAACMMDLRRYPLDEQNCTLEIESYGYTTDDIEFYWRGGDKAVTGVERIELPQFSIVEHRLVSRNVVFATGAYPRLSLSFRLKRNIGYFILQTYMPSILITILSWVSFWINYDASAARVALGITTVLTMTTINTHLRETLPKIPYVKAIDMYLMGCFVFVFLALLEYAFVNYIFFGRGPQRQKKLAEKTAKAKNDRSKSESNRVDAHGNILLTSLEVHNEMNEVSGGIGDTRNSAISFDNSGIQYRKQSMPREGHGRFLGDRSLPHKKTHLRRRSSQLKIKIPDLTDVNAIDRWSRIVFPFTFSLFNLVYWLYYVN

[2] = target: T2, Neuronal acetylcholine receptor; alpha4/beta2 (Homo sapiens) (UniProt P17787+P43681); experiment: Positive allosteric modulation of alpha4beta2 nAChR (unknown origin) expressed in Xenopus laevis oocytes assessed as increase in acetylcholine-induced channel current at 10 to 100 uM at -70 mV holding potential by two-microelectrode voltage clamp method; assay type: cell-based
[3] = target: T3, GABA-A receptor; anion channel (Rattus norvegicus) (UniProt O09028+P15431+P18506+P18508+P19969+P20236+P23574+P23576+P28471+P28473+P30191+P62813+P63079+P63138+Q91ZM7+Q9ES14); experiment: Positive allosteric modulation of GABA-A receptor in Sprague-Dawley rat primary hippocampal neurons assessed as miniature inhibitory postsynaptic current amplitude at 10 uM for 300 secs at -70 mV holding potential by patch-clamp method; assay type: protein-complex assay; design: scale not given: the % may be the effect or the level left
[4] = target: T3, GABA-A receptor; anion channel (Rattus norvegicus); experiment: Positive allosteric modulation of GABA-A receptor in Sprague-Dawley rat primary hippocampal neurons assessed as miniature inhibitory postsynaptic current mean frequency at 10 uM for 300 secs at -70 mV holding potential by patch-clamp method; assay type: protein-complex assay; design: scale not given: the % may be the effect or the level left
[5] = target: T3, GABA-A receptor; anion channel (Rattus norvegicus); experiment: Positive allosteric modulation of GABA-A receptor in Sprague-Dawley rat primary hippocampal neurons assessed as prolongation of miniature inhibitory postsynaptic current decay time at 10 uM for 300 secs at -70 mV holding potential by patch-clamp method; assay type: protein-complex assay; design: scale not given: the % may be the effect or the level left
[6] = target: GABA-A receptor; alpha-1/beta-3/gamma-2 (Homo sapiens, UniProt P14867+P18507+P28472, N265S); experiment: Positive allosteric modulation of GABA-A alpha1beta3(N265S)gamma2S mutant receptor (unknown origin) expressed in Xenopus laevis oocytes assessed as increase in GABA-induced chloride current after 15 mins at -70 mV holding potential by two-microelectrode voltage clamp method; assay type: cell-based
[7] = target: T4, GABA A receptor alpha-1/beta-1/gamma-2 (Homo sapiens, UniProt P14867+P18505+P18507); experiment: Positive allosteric modulation of GABA-A alpha1beta1gamma2S receptor (unknown origin) expressed in Xenopus laevis oocytes assessed as increase in GABA-induced chloride current after 15 mins at -70 mV holding potential by two-microelectrode voltage clamp method; assay type: cell-based
T4 sequence (P14867 whole entry): T1 sequence (P14867 whole entry)
T4 sequence (P18507 whole entry): T1 sequence (P18507 whole entry)
T4 sequence (P18505 whole entry): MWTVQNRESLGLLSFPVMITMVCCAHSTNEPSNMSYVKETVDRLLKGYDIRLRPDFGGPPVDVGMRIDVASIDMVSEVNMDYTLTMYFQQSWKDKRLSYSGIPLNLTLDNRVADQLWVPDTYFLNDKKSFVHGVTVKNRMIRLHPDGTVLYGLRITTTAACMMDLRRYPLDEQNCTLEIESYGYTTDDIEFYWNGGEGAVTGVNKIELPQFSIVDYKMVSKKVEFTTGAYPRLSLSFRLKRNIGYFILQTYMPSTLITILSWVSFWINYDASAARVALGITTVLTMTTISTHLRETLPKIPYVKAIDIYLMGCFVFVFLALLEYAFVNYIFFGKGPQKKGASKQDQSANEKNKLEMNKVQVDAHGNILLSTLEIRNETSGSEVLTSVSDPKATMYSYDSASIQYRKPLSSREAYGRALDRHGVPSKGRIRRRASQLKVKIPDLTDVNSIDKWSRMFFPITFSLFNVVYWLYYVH

[8] = target: GABA A receptor alpha-1/beta-1/gamma-2 (Homo sapiens, UniProt P14867+P18505+P18507, S290N); experiment: Positive allosteric modulation of GABA-A alpha1beta1(S290N)gamma2S mutant receptor (unknown origin) expressed in Xenopus laevis oocytes assessed as increase in GABA-induced chloride current after 15 mins at -70 mV holding potential by two-microelectrode voltage clamp method; assay type: cell-based
[9] = target: Metabotropic glutamate receptor 2 (Homo sapiens) (UniProt Q14416); experiment: Positive allosteric modulation of mGluR2 (unknown origin) expressed in Xenopus laevis oocytes assessed as increase in glutamate-induced channel current at 10 to 100 uM at -70 mV holding potential by two-microelectrode voltage clamp method; assay type: cell-based
[10] = tested on: Mus musculus; experiment: Anticonvulsive activity in C57BL/6N mouse assessed as protection against 39.5 +/- 0.8 mg/kg pentylenetetrazole-induced seizures by measuring elevation in seizure threshold at 0.1 to 0.3 mg/kg, ip pretreated for 30 mins followed by pentylenetetrazole tail-vein infusion; assay type: functional, organism-based
[11] = target: T3, GABA-A receptor; anion channel (Rattus norvegicus); experiment: Positive allosteric modulation of GABA-A receptor in Sprague-Dawley rat primary hippocampal neurons assessed as channel-mediated tonic current at 10 uM pretreated for 300 secs followed by BMI addition for 10 secs at -70 mV holding potential by patch-clamp method; assay type: protein-complex assay
[12] = target: T5, GABA-A receptor; alpha-1/beta-2/gamma-2 (Homo sapiens, UniProt P14867+P18507+P47870); experiment: Positive allosteric modulation of GABA-A alpha1beta2gamma2S receptor (unknown origin) expressed in Xenopus laevis oocytes assessed as increase in GABA-induced chloride current after 15 mins at -70 mV holding potential by two-microelectrode voltage clamp method; assay type: cell-based
T5 sequence (P14867 whole entry): T1 sequence (P14867 whole entry)
T5 sequence (P47870 whole entry): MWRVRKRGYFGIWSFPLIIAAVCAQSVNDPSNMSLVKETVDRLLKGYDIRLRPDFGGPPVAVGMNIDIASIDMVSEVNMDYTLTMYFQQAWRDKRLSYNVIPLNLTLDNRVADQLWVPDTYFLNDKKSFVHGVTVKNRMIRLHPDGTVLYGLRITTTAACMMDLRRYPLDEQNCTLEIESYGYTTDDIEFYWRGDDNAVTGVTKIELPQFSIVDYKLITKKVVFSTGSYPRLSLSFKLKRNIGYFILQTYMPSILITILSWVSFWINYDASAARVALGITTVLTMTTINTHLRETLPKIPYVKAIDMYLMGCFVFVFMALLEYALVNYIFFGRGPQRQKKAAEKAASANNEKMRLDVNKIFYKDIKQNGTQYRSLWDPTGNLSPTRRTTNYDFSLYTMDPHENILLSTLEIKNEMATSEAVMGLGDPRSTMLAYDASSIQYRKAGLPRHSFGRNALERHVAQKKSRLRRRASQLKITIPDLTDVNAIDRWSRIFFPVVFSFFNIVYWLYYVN
T5 sequence (P18507 whole entry): T1 sequence (P18507 whole entry)

[13] = target: GABA-A receptor; alpha-1/beta-3/gamma-2 (Homo sapiens, UniProt P14867+P18507+P28472, F289S); experiment: Positive allosteric modulation of GABA-A alpha1beta3(F289S)gamma2S mutant receptor (unknown origin) expressed in Xenopus laevis oocytes assessed as increase in GABA-induced chloride current after 15 mins at -70 mV holding potential by two-microelectrode voltage clamp method; assay type: cell-based
[14] = target: Transient receptor potential cation channel subfamily V member 1 (Homo sapiens) (UniProt Q8NER1); experiment: Agonist activity at TRPV1 receptor (unknown origin) expressed in Xenopus laevis oocytes assessed as increase in channel current at 10 to 100 uM at -70 mV holding potential by two-microelectrode voltage clamp method; assay type: cell-based
[15] = tested on: Mus musculus; experiment: Anticonvulsive activity in C57BL/6N mouse assessed as protection against 52.6 +/- 2.1 mg/kg pentylenetetrazole-induced seizures by measuring elevation in seizure threshold at 0.3 mg/kg, ip pretreated for 30 mins followed by pentylenetetrazole tail-vein infusion; assay type: functional, organism-based
[16] = tested on: Oocyte; experiment: Induction of current in Xenopus laevis oocytes at 10 to 100 uM after 5 mins by two-microelectrode voltage clamp method; assay type: cell-based
[17] = target: T3, GABA-A receptor; anion channel (Rattus norvegicus); experiment: Positive allosteric modulation of GABA-A receptor in Sprague-Dawley rat primary hippocampal neurons assessed as increase in channel-mediated tonic current at 10 uM for 300 secs at -70 mV holding potential by patch-clamp method; assay type: protein-complex assay
[18] = target: Glutamate [NMDA] receptor (Homo sapiens) (UniProt Q05586+Q12879+Q13224+O15399+O60391+Q14957+Q8TCU5); experiment: Positive allosteric modulation of NMDA receptor (unknown origin) expressed in Xenopus laevis oocytes assessed as increase in NMDA-induced channel current at 10 to 100 uM at -70 mV holding potential by two-microelectrode voltage clamp method; assay type: cell-based
[19] = target: T2, Neuronal acetylcholine receptor; alpha4/beta2 (Homo sapiens); experiment: Negative allosteric modulation of alpha4beta2 nAChR (unknown origin) expressed in Xenopus laevis oocytes assessed as decrease in acetylcholine-induced channel current at 100 uM at -70 mV holding potential by two-microelectrode voltage clamp method relative to control; assay type: cell-based
[20] = target: T4, GABA A receptor alpha-1/beta-1/gamma-2; experiment: Positive allosteric modulation of GABA-A alpha1beta1gamma2S receptor (unknown origin) expressed in Xenopus laevis oocytes assessed as increase in GABA-induced chloride current at 300 uM after 15 mins at -70 mV holding potential by two-microelectrode voltage clamp method relative to control; assay type: cell-based; conditions: 0.25 h
[21] = target: T3, GABA-A receptor; anion channel (Rattus norvegicus); experiment: Positive allosteric modulation of GABA-A receptor in Sprague-Dawley rat primary hippocampal neurons assessed as channel-mediated tonic current at 30 uM pretreated for 300 secs followed by BMI addition for 10 secs at -70 mV holding potential by patch-clamp method (reference value: -63 pA); assay type: protein-complex assay
[22] = tested on: Mus musculus; experiment: Anticonvulsive activity in C57BL/6N mouse assessed as protection against 49 +/- 1.8 mg/kg pentylenetetrazole-induced seizures by measuring elevation in seizure threshold at 10 mg/kg, ip pretreated for 30 mins followed by pentylenetetrazole tail-vein infusion; assay type: functional, organism-based

Metabotropic glutamate receptor 2 (Homo sapiens), sequence (Q14416 19-872 limits assumed): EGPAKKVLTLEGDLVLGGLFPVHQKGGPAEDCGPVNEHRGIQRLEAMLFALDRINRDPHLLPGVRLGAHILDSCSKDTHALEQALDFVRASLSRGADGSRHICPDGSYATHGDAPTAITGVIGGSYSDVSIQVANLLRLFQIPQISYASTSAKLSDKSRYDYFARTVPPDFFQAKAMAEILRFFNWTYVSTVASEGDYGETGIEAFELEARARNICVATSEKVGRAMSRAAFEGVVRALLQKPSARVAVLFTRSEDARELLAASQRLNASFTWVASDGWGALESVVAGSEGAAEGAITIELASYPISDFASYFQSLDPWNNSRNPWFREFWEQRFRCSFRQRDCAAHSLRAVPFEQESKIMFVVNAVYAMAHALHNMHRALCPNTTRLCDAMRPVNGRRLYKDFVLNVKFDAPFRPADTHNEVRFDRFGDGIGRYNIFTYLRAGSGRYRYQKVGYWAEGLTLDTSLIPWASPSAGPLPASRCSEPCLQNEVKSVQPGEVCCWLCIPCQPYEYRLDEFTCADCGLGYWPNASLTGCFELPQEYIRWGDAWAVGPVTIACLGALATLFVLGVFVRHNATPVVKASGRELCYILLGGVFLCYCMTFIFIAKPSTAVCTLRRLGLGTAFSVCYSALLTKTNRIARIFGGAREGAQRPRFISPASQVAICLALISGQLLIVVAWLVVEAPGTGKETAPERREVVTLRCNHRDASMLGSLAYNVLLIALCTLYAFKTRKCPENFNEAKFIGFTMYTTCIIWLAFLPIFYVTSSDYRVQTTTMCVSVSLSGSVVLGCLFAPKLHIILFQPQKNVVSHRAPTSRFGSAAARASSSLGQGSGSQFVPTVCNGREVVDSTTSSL
Transient receptor potential cation channel subfamily V member 1 (Homo sapiens), sequence (Q8NER1 whole entry, the tested form may be a part): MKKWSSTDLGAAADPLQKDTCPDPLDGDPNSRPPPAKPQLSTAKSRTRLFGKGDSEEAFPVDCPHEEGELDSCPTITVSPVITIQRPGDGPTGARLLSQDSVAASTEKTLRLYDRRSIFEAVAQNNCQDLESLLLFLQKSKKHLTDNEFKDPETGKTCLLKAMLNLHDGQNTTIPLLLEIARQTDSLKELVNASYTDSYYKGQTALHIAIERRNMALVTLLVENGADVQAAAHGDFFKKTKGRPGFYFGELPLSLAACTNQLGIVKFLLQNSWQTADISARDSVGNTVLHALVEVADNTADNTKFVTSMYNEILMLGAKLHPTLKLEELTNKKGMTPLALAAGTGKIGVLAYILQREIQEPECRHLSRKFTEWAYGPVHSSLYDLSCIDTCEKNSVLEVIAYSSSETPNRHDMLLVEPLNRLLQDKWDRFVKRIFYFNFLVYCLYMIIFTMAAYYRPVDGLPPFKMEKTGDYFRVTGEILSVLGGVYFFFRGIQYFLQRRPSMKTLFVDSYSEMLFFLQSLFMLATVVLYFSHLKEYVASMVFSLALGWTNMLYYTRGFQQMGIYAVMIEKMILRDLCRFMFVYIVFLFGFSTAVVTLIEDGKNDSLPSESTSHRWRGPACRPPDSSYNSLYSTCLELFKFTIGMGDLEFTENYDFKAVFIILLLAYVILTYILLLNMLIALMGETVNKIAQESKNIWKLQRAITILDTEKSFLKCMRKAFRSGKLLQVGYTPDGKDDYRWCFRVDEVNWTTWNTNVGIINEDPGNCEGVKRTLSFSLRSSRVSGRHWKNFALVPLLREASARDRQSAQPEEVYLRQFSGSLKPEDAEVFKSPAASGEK

## C/C(C#N)=C\c1ccc(Cl)cc1Cl
[1]
  EC50: 91 µM

## C/C(=C\C#N)c1ccc(Cl)cc1Cl
[1]
  EC50: 100 µM

## C/C(=C/C#N)c1ccc(Cl)cc1Cl
[1]
  EC50: 13 µM
[2]
  Activity: inactive
[3]
  Activity: 97%
[4]
  Activity: 78%
[5]
  Activity: 213%
[6]
  EC50: 103 µM
[7]
  EC50: 148 µM
[8]
  EC50: 10 µM
[9]
  Activity: inactive
[10]
  Activity: Active
[11]
  Activity: -38 pA
[12]
  EC50: 15 µM
[13]
  EC50: 171 µM
[14]
  Activity: inactive
[15]
  Activity: Active
[16]
  Activity: Non-Toxic
[17]
  Activity: Active
[18]
  Activity: inactive
[19]
  inhibition: 70%
[20]
  Emax at 300 µM: 883%

## CC1=C2[C@H](/C=C(\C)C(=O)O)CC[C@@H](C)[C@H]2CC1 [VALERENIC ACID]
[1]
  EC50: 19 µM
[21]
  Activity: -115 pA
[22]
  Activity: Active

## C/C(C#N)=C\c1ccc(C)cc1Cl
[1]
  EC50: 44 µM

## C/C(=C(\C#N)C(N)=O)c1ccc(Cl)cc1Cl
[1]
  EC50: 44 µM
[12]
  EC50: 40 µM
